# Measurements: patent publication US20090286744A1, “Treatment of asthma” (IMMUNEREGEN BIOSCINECES INC., priority 2005, published 2009)
# Ends that are not written are not given here.
# Test system: PARP-1
# Assay: Immunoblotting for PARP-1 in alveolar macrophages pre-treated with JP-8 and substance P
# Assay type: cell-based
# Settings: PAM pre-treated with 8 ug/ml of JP-8 and substance P; 24 hours; immunoblotting (FIG. 1)
# Description: Alveolar macrophages (PAM) were pre-treated with 8 ug/ml of JP-8 and substance P, or left untreated. After 24 hours, protein was extracted from the PAM and analyzed by immunoblotting for PARP-1, procaspase-3, p53, and GAPDH.
substance,measurement,value
Substance P (RPKPQQFFGLM-NH2; listed as Homo sapiens),PARP-1 expression in alveolar macrophages,causes degradation of PARP-1 expression in alveolar macrophages in a dose-dependent manner
